From patent US20240180883A1, “TREATMENT OF MIGRAINE” (Allergan Pharmaceuticals International Limited, priority 2020, published 2024)

How the values were obtained:
[1] = cited from earlier work; for liver enzyme levels: clinical trials
Study B: adverse events = details: Treatment B: rifampin 600 mg once daily for 5 days, fasted

O=C(CN1C(=O)C2(CCCC2)NC[C@H]1c1cc(F)cc(F)c1)Nc1ccc2c(c1)C[C@@]1(C2)C(=O)Nc2ncccc21 [MK-3207]
liver enzyme levels [1]: elevated liver enzyme levels were observed

NCCCC[C@H](NC(=O)[C@@H](Cc1cc(Br)c(O)c(Br)c1)NC(=O)N1CCC(N2Cc3ccccc3NC2=O)CC1)C(=O)N1CCN(c2ccncc2)CC1 [olcegepant]
efficacy in the acute treatment of migraine ([1]; IV formulation): efficacious in the acute treatment of migraine
oral bioavailability ([1]; human, in vivo, po): not orally bioavailable

CO[C@H]1/C=C/O[C@@]2(C)Oc3c(C)c(O)c4c(O)c(c(/C=N/N5CCN(C)CC5)c(O)c4c3C2=O)NC(=O)/C(C)=C\C=C\[C@H](C)[C@H](O)[C@@H](C)[C@@H](O)[C@@H](C)[C@H](OC(C)=O)[C@@H]1C [rifampin, reference compound]
AEs leading to discontinuation (Study B: adverse events): 0 n (%)
Any AE (Study B: adverse events): 1 (3.3) n (%)
Deaths (Study B: adverse events): 0 n (%)
Dry Mouth (Study B: adverse events): 0 n (%)
Flatulence (Study B: adverse events): 0 n (%)
Gastrointestinal Disorders (Study B: adverse events): 0 n (%)
Headache (Study B: adverse events): 1 (3.3) n (%)
Nausea (Study B: adverse events): 0 n (%)
Nervous System Disorders (Study B: adverse events): 1 (3.3) n (%)
SAEs (Study B: adverse events): 0 n (%)
TEAEs (Study B: adverse events): 1 (3.3) n (%)
Treatment related TEAEs (Study B: adverse events): 1 (3.3) n (%)

O=C(N[C@@H]1CC[C@@H](c2cccc(F)c2F)CN(CC(F)(F)F)C1=O)N1CCC(n2c(=O)[nH]c3ncccc32)CC1 [telcagepant]
liver enzyme levels [1]: elevated liver enzyme levels were observed
